Test results as given in patent US4757087A, “Carbacyclin derivatives” (Sankyo Company Limited, priority 1985, dated 1988).

Assays:
aspirin-induced ulcer = experiment: Effect on aspirin-induced ulcer (Brodie and Chase method); format: in vivo, rats of the Donryu strain (male); details: orally, rats, 15 min before 100 mg/kg aspirin, 4 h after aspirin
Experimental: According to a method reported by Brodie and Chase [Gastroenterology 53, 604 (1967)], the anti-ulcer effect was determined. Five male rats of the Donryu strain (body weight 170 to 200 g) were used for each of the control and test compound groups. After being fasted for 24 hours, the rats were orally given certain concentrations of the test compounds and 15 minutes later given orally 100 mg/kg of aspirin (Sanko Pharmaceutical Inc). Four hours after the aspirin administration, the stomach was extracted and expanded with 10 ml of 0.5% formalin. An ulcer index was calculated from the total area of ulceration for the rats of the treated and control groups. The inhibition rate was calculated by comparing the ulcer indices of both groups.

[1] = Acute toxicity testing, intravenous; format: in vivo; details: intravenously, 10 mg per kg of body weight, five rats
[2] = GB 2012265A, U.S. Pat. No. 4,238,414; cited from earlier work
[3] = system: blood platelet aggregation; details: GB 2012265A, U.S. Pat. No. 4,238,414; cited from earlier work

| Compound | Inhibition Rate (%) (aspirin-induced ulcer; 30 γ/kg (γ = 10^-6 g)) | Inhibition Rate (%) (aspirin-induced ulcer; 100 γ/kg (γ = 10^-6 g)) | other results |
| --- | --- | --- | --- |
| C=CCCCC(C)[C@H](O)/C=C/[C@@H]1[C@H]2C/C(=C/CCCC(=O)O)C[C@H]2C[C@H]1O (stereo partly drawn) [Preparative Example 1, 16-Methyl-20-methylenecarbacyclin] | 95% | 98% | Inhibition Rate (%) (aspirin-induced ulcer; 10 γ/kg (γ = 10^-6 g)): 45%; deaths (acute toxicity) [1]: no deaths occurred |
| C=CCCCC(C)(C)[C@H](O)/C=C/[C@@H]1[C@H]2C/C(=C/CCCC(=O)O)C[C@H]2C[C@H]1O [Preparative Example 3, 16,16-Dimethyl-20-methylenecarbacyclin] | 92% |  |  |
| CC(C)=CCCCC(C)[C@H](O)/C=C/[C@@H]1[C@H]2C/C(=C/CCCC(=O)O)C[C@H]2C[C@H]1O (stereo partly drawn) [Preparative Example 6, 16-Methyl-20-isopropylidenecarbacyclin] | 84% |  |  |
| CCCCC[C@H](O)/C=C/[C@@H]1[C@H]2C/C(=C/CCCC(=O)O)C[C@H]2C[C@H]1O [Reference Compound A, Carbacyclin] |  | 0% | Inhibition Rate (%) (aspirin-induced ulcer; 300 γ/kg (γ = 10^-6 g)): 0%; chemical stability [2]: chemically stable; inhibition of blood platelet aggregation [3]: inhibition of blood platelet aggregation |
| CCC=CC[C@H](O)/C=C/[C@@H]1[C@H]2C/C(=C/CCCC(=O)O)C[C@H]2C[C@H]1O [Reference Compound B, 17,18-Didehydrocarbacyclin] | 15% | 47% |  |
| CC(C)=CCCCC[C@H](O)/C=C/[C@@H]1[C@H]2C/C(=C/CCCC(=O)O)C[C@H]2C[C@H]1O [Reference Compound C, 20-Isopropylidenecarbacyclin] |  |  | Inhibition Rate (%) (aspirin-induced ulcer; 300 γ/kg (γ = 10^-6 g)): 4% |
| CC(C)=CCCC(C)C[C@H](O)/C=C/[C@@H]1[C@H]2C/C(=C/CCCC(=O)O)C[C@H]2C[C@H]1O (stereo partly drawn) [Reference Compound D, 17-Methyl-20-isopropylidenecarbacyclin] | 30% | 98% |  |
